Reference: PubChem BioAssay (NCI)
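Exposure lasted 48 hours, with cells grown in 96-well plates and compounds tested at five concentrations. TGI: concentration producing complete growth inhibition.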

Tested on: HOP-62 NSCLC
Experiment: NCI tumour cell line growth inhibition, 48 h

SMILES	TGI
CCc1c[n+]([O-])c(C)cc1[N+](=O)[O-]	> 100 µM
COc1ccc(-c2c3c([nH]c(=S)c2C#N)CC(C)(C)CC3=O)cc1	> 100 µM
N#CC(N=Nc1ccc(Cl)cc1)c1nc2ccccc2o1 (centres undefined)	> 100 µM
COc1ccc(/C=C2\C[C@H]3[C@@H]4CCC5=C/C(=N/O)CC[C@]5(C)[C@H]4CC[C@]3(C)\C2=N\O)cc1OC	> 100 µM
Cc1ccc([N+](=O)[O-])cc1N=NC(=O)NNc1cc([N+](=O)[O-])ccc1C	> 100 µM
COC(=O)CCc1cc(OC)c2c(c1)[C@H](C(=O)OC)[C@@H](c1ccc(O)c(OC)c1)O2	> 100 µM
COC(=O)CN1c2nc(C#N)c(C#N)nc2N(CC(=O)OC)c2nc(C#N)c(C#N)nc21	34.3 µM
CC(C)=CCC/C(C)=C/COC(C)(C)C1=CCC(C)CC1 (centres undefined) (tested in a mixture with another compound)	> 100 µM
C/C1=C\CC[C@@]2(C)O[C@@H]2C[C@@H](C2(C)CO2)CC/C(C)=C/CC1 (some centres undefined)	97.3 µM
Clc1ccc(CSCCc2ccncc2)cc1Cl	50.2 µM
COc1ccc(S(=O)(=O)N2C(=O)CCC2C(=O)NN)cc1 (centres undefined)	> 100 µM
CCCCn1cnc2c(c(CC#N)nn2-c2ccccc2)c1=N	> 100 µM
O=C1CC(C(O)(C(F)(F)F)C(F)(F)Cl)CCC1C(O)(C(F)(F)F)C(F)(F)Cl (centres undefined)	> 10 µM
C=CCNC(=S)N=Nc1c(O)[nH]c2ccc([N+](=O)[O-])cc12	> 100 µM
C[C@]12CC[C@@H]3c4ccc(O)cc4CC[C@H]3[C@@H]1C/C(=C\c1ccncc1)[C@@H]2O	44.5 µM
COc1cc(-c2cc(=O)c3cc4c(=O)cc(-c5cc(OC)c(OC)c(OC)c5)oc4cc3o2)cc(OC)c1OC	26.4 µM
O=c1ccn(C2OC(CO)C(P(=O)(O)O)C2O)c(=O)[nH]1 (centres undefined)	> 100 µM
NCCCN1CCN(CCCNc2ccc3nnn4c5ccccc5c(=O)c2c34)CC1	> 100 µM
O=C(Oc1cc(=O)c(OC(=O)c2ccccc2)co1)c1ccccc1	> 100 µM

Tested on: A549 NSCLC
Experiment: NCI tumour cell line growth inhibition, 48 h

SMILES	TGI
CCc1c[n+]([O-])c(C)cc1[N+](=O)[O-]	> 100 µM
COc1ccc(-c2c3c([nH]c(=S)c2C#N)CC(C)(C)CC3=O)cc1	> 100 µM
N#CC(N=Nc1ccc(Cl)cc1)c1nc2ccccc2o1 (centres undefined)	> 100 µM
COc1ccc(/C=C2\C[C@H]3[C@@H]4CCC5=C/C(=N/O)CC[C@]5(C)[C@H]4CC[C@]3(C)\C2=N\O)cc1OC	> 100 µM
COC(=O)CCc1cc(OC)c2c(c1)[C@H](C(=O)OC)[C@@H](c1ccc(O)c(OC)c1)O2	> 100 µM
COC(=O)CN1c2nc(C#N)c(C#N)nc2N(CC(=O)OC)c2nc(C#N)c(C#N)nc21	> 82.8 µM
CC(C)=CCC/C(C)=C/COC(C)(C)C1=CCC(C)CC1 (centres undefined) (tested in a mixture with another compound)	> 100 µM
C/C1=C\CC[C@@]2(C)O[C@@H]2C[C@@H](C2(C)CO2)CC/C(C)=C/CC1 (some centres undefined)	36.5 µM
Clc1ccc(CSCCc2ccncc2)cc1Cl	96.2 µM
COc1ccc(S(=O)(=O)N2C(=O)CCC2C(=O)NN)cc1 (centres undefined)	> 100 µM
CCCCn1cnc2c(c(CC#N)nn2-c2ccccc2)c1=N	> 100 µM
O=C1CC(C(O)(C(F)(F)F)C(F)(F)Cl)CCC1C(O)(C(F)(F)F)C(F)(F)Cl (centres undefined)	> 10 µM
C=CCNC(=S)N=Nc1c(O)[nH]c2ccc([N+](=O)[O-])cc12	> 100 µM
C[C@]12CC[C@@H]3c4ccc(O)cc4CC[C@H]3[C@@H]1C/C(=C\c1ccncc1)[C@@H]2O	> 100 µM
COc1cc(-c2cc(=O)c3cc4c(=O)cc(-c5cc(OC)c(OC)c(OC)c5)oc4cc3o2)cc(OC)c1OC	> 100 µM
O=c1ccn(C2OC(CO)C(P(=O)(O)O)C2O)c(=O)[nH]1 (centres undefined)	> 100 µM
NCCCN1CCN(CCCNc2ccc3nnn4c5ccccc5c(=O)c2c34)CC1	> 100 µM
O=C(Oc1cc(=O)c(OC(=O)c2ccccc2)co1)c1ccccc1	> 100 µM

Tested on: DU-145 prostate
Experiment: NCI tumour cell line growth inhibition, 48 h

SMILES	TGI
CCc1c[n+]([O-])c(C)cc1[N+](=O)[O-]	> 100 µM
COc1ccc(-c2c3c([nH]c(=S)c2C#N)CC(C)(C)CC3=O)cc1	> 100 µM
N#CC(N=Nc1ccc(Cl)cc1)c1nc2ccccc2o1 (centres undefined)	> 100 µM
COc1ccc(/C=C2\C[C@H]3[C@@H]4CCC5=C/C(=N/O)CC[C@]5(C)[C@H]4CC[C@]3(C)\C2=N\O)cc1OC	> 100 µM
Cc1ccc([N+](=O)[O-])cc1N=NC(=O)NNc1cc([N+](=O)[O-])ccc1C	> 100 µM
COC(=O)CCc1cc(OC)c2c(c1)[C@H](C(=O)OC)[C@@H](c1ccc(O)c(OC)c1)O2	> 100 µM
COC(=O)CN1c2nc(C#N)c(C#N)nc2N(CC(=O)OC)c2nc(C#N)c(C#N)nc21	18.3 µM
CC(C)=CCC/C(C)=C/COC(C)(C)C1=CCC(C)CC1 (centres undefined) (tested in a mixture with another compound)	> 100 µM
C/C1=C\CC[C@@]2(C)O[C@@H]2C[C@@H](C2(C)CO2)CC/C(C)=C/CC1 (some centres undefined)	48.8 µM
Clc1ccc(CSCCc2ccncc2)cc1Cl	> 100 µM
COc1ccc(S(=O)(=O)N2C(=O)CCC2C(=O)NN)cc1 (centres undefined)	> 100 µM
CCCCn1cnc2c(c(CC#N)nn2-c2ccccc2)c1=N	> 100 µM
O=C1CC(C(O)(C(F)(F)F)C(F)(F)Cl)CCC1C(O)(C(F)(F)F)C(F)(F)Cl (centres undefined)	> 10 µM
C=CCNC(=S)N=Nc1c(O)[nH]c2ccc([N+](=O)[O-])cc12	> 100 µM
C[C@]12CC[C@@H]3c4ccc(O)cc4CC[C@H]3[C@@H]1C/C(=C\c1ccncc1)[C@@H]2O	> 100 µM
COc1cc(-c2cc(=O)c3cc4c(=O)cc(-c5cc(OC)c(OC)c(OC)c5)oc4cc3o2)cc(OC)c1OC	> 100 µM
O=c1ccn(C2OC(CO)C(P(=O)(O)O)C2O)c(=O)[nH]1 (centres undefined)	> 100 µM
NCCCN1CCN(CCCNc2ccc3nnn4c5ccccc5c(=O)c2c34)CC1	57.6 µM
O=C(Oc1cc(=O)c(OC(=O)c2ccccc2)co1)c1ccccc1	> 100 µM

Tested on: RPMI-8226 leukemia
Experiment: NCI tumour cell line growth inhibition, 48 h

SMILES	TGI
CCc1c[n+]([O-])c(C)cc1[N+](=O)[O-]	> 100 µM
COc1ccc(-c2c3c([nH]c(=S)c2C#N)CC(C)(C)CC3=O)cc1	> 100 µM
N#CC(N=Nc1ccc(Cl)cc1)c1nc2ccccc2o1 (centres undefined)	> 100 µM
COc1ccc(/C=C2\C[C@H]3[C@@H]4CCC5=C/C(=N/O)CC[C@]5(C)[C@H]4CC[C@]3(C)\C2=N\O)cc1OC	60.3 µM
Cc1ccc([N+](=O)[O-])cc1N=NC(=O)NNc1cc([N+](=O)[O-])ccc1C	> 100 µM
COC(=O)CCc1cc(OC)c2c(c1)[C@H](C(=O)OC)[C@@H](c1ccc(O)c(OC)c1)O2	55.5 µM
COC(=O)CN1c2nc(C#N)c(C#N)nc2N(CC(=O)OC)c2nc(C#N)c(C#N)nc21	> 100 µM
CC(C)=CCC/C(C)=C/COC(C)(C)C1=CCC(C)CC1 (centres undefined) (tested in a mixture with another compound)	> 100 µM
C/C1=C\CC[C@@]2(C)O[C@@H]2C[C@@H](C2(C)CO2)CC/C(C)=C/CC1 (some centres undefined)	> 100 µM
Clc1ccc(CSCCc2ccncc2)cc1Cl	40.3 µM
COc1ccc(S(=O)(=O)N2C(=O)CCC2C(=O)NN)cc1 (centres undefined)	> 100 µM
CCCCn1cnc2c(c(CC#N)nn2-c2ccccc2)c1=N	73.4 µM
O=C1CC(C(O)(C(F)(F)F)C(F)(F)Cl)CCC1C(O)(C(F)(F)F)C(F)(F)Cl (centres undefined)	> 10 µM
C=CCNC(=S)N=Nc1c(O)[nH]c2ccc([N+](=O)[O-])cc12	> 100 µM
C[C@]12CC[C@@H]3c4ccc(O)cc4CC[C@H]3[C@@H]1C/C(=C\c1ccncc1)[C@@H]2O	24.6 µM
COc1cc(-c2cc(=O)c3cc4c(=O)cc(-c5cc(OC)c(OC)c(OC)c5)oc4cc3o2)cc(OC)c1OC	> 100 µM
O=c1ccn(C2OC(CO)C(P(=O)(O)O)C2O)c(=O)[nH]1 (centres undefined)	> 100 µM
NCCCN1CCN(CCCNc2ccc3nnn4c5ccccc5c(=O)c2c34)CC1	> 100 µM
O=C(Oc1cc(=O)c(OC(=O)c2ccccc2)co1)c1ccccc1	> 100 µM

Tested on: A498 renal
Experiment: NCI tumour cell line growth inhibition, 48 h

SMILES	TGI
CCc1c[n+]([O-])c(C)cc1[N+](=O)[O-]	> 100 µM
COc1ccc(-c2c3c([nH]c(=S)c2C#N)CC(C)(C)CC3=O)cc1	> 100 µM
N#CC(N=Nc1ccc(Cl)cc1)c1nc2ccccc2o1 (centres undefined)	> 100 µM
COc1ccc(/C=C2\C[C@H]3[C@@H]4CCC5=C/C(=N/O)CC[C@]5(C)[C@H]4CC[C@]3(C)\C2=N\O)cc1OC	> 100 µM
Cc1ccc([N+](=O)[O-])cc1N=NC(=O)NNc1cc([N+](=O)[O-])ccc1C	84.4 µM
COC(=O)CCc1cc(OC)c2c(c1)[C@H](C(=O)OC)[C@@H](c1ccc(O)c(OC)c1)O2	74.5 µM
COC(=O)CN1c2nc(C#N)c(C#N)nc2N(CC(=O)OC)c2nc(C#N)c(C#N)nc21	> 52 µM
CC(C)=CCC/C(C)=C/COC(C)(C)C1=CCC(C)CC1 (centres undefined) (tested in a mixture with another compound)	> 100 µM
C/C1=C\CC[C@@]2(C)O[C@@H]2C[C@@H](C2(C)CO2)CC/C(C)=C/CC1 (some centres undefined)	> 100 µM
Clc1ccc(CSCCc2ccncc2)cc1Cl	26 µM
COc1ccc(S(=O)(=O)N2C(=O)CCC2C(=O)NN)cc1 (centres undefined)	> 100 µM
CCCCn1cnc2c(c(CC#N)nn2-c2ccccc2)c1=N	91.6 µM
O=C1CC(C(O)(C(F)(F)F)C(F)(F)Cl)CCC1C(O)(C(F)(F)F)C(F)(F)Cl (centres undefined)	> 10 µM
C=CCNC(=S)N=Nc1c(O)[nH]c2ccc([N+](=O)[O-])cc12	91.7 µM
